Values quoted from earlier work in patent US7220434B2, “Dual-release compositions of a cyclooxygenase-2 inhibitor” (Pharmacia Corporation (of Pfizer, Inc.), priority 2000, dated 2007).

Experiments:
[1] = conventionally formulated for oral delivery

In the case of `Cc1ccc(-c2cc(C(F)(F)F)nn2-c2ccc(S(N)(=O)=O)cc2)cc1` [celecoxib, 4-[5-(4-methylphenyl)-3-(trifluoromethyl)-1H-pyrazol-1-yl]benzenesulfonamide], the solubility in water is listed as “low solubility in water” and the “solubility in aqueous media” value (aqueous media) is listed as “unusually insoluble”.
For `COc1ccc(-c2cc(C(F)F)nn2-c2ccc(S(N)(=O)=O)cc2)cc1F` [deracoxib], the solubility in water is given as “low solubility in water”.
For `CS(=O)(=O)c1ccc(C2=C(c3ccccc3)C(=O)OC2)cc1` [rofecoxib, 3-phenyl-4-[4-(methylsulfonyl)phenyl]-5H-furan-2-one], the solubility in water is given as “low solubility in water” and the half-life [1] is given as “sufficient to provide therapeutic benefit over a 24-hour period”.
In the case of `Cc1onc(-c2ccccc2)c1-c1ccc(S(N)(=O)=O)cc1` [valdecoxib, 4-[5-methyl-3-phenylisoxazol-4-yl]benzenesulfonamide], the solubility in water is listed as “low solubility in water”.
